# Assay results taken from patent US20240197766A1, “TREATMENT OF RNA VIRUS INFECTION WITH A CYTIDINE” (The Cleveland Clinic Foundation, priority 2021, published 2024).
# Several values for one entry are separate records, joined by “and”; a condition that tells them apart may be missing. Equal entries are not always repeated. Entries after “also recorded” stand apart in the source; their conditions may differ. Where two headings read alike, the source gives them in different places.
# How the values were obtained:
# [1] = cited from earlier work
# [2] = test system: cytidine analog deamination; assay: THU clinical pharmacodynamics: deamination of co-administered cytidine analogs
# serum uridine levels = assay: THU clinical pharmacodynamics: serum uridine and cytidine levels
# Description: Volunteers (3 males; 3 females) received a single THU dose of 750 mg 7 days apart, the 1st dose in a fasted state and the 2nd after a standard FDA meal.
# coronavirus = type: cell-based; details: THU 24 hours at clinically relevant concentrations, human lung epithelial cells, plaque assay and QRT-PCR
# [3] = THU clinical pharmacokinetics, oral 750 mg in healthy volunteers; details: male, human, in vivo
# host cell = details: clinically relevant concentrations, data from Xiong et al.; cited from earlier work
# [4] = read-out: routine Cmax; clinical; cited from earlier work
# CMV = details: case series of renal transplantation patients; cited from earlier work
smiles,measurement,setting,value
"O=C1NC(O)CCN1[C@@H]1O[C@H](CO)[C@@H](O)[C@H]1O (stereo partly shown) [THU, tetrahydrouridine]",administered drug excreted through the kidneys within 24 h,"[1]; renal excretion, within 24 h",approximately 50%
same,elimination within 48 hours,[1]; within 48 hours,100%
same,reduction in cytidine analog deamination,[2],~90%
same,decrease of uridine availability to non-dividing cells,serum uridine levels; inhibition of 2 CDA-mediated uridine supply routes,≤ 90%
same,serum cytidine levels,serum uridine levels; single THU dose of 750 mg,increasing
same,decrease in serum uridine levels,"serum uridine levels; single THU dose of 750 mg, fasted and fed states, males and females",50-80% and 50-90%
same,reduction of uridine available for systemic salvage,"serum uridine levels; standard, non-toxic doses",up to 90%
same,coronavirus (VSV) replication,coronavirus,inhibited coronavirus replication; also recorded: significantly inhibited
same,Cmax,[3],2 µM to 8 µM and 500 ng/mL to 2000 ng/mL
same,Tmax,[3],~3 h
"C/C(O)=C(\C#N)C(=O)Nc1ccc(C(F)(F)F)cc1 [Teriflunomide, teriflunomide]",host cell cytotoxicity,host cell,minimal
same,Cmax,[4],10 to 100 µM
Cc1oncc1C(=O)Nc1ccc(C(F)(F)F)cc1 [leflunomide],clinical outcome of CMV infection,CMV,cleared virus and/or produced clinical improvement
